From publication PMC3598705, “Evaluation of Toxicity and Biodegradability of Cholinium Amino Acids Ionic Liquids” (PLoS ONE, 2013)

What was measured:
E. coli ATCC 8739 = experiment: Antimicrobial activity, tube dilution method; type: cell-based, Escherichia coli; settings: four repeated experiments; for MIC: 24 h at 37 °C; for MBC: kills 99.9% or more
Method: (§1) Antimicrobial activity was measured via the tube dilution method as described previously. Briefly, E. coli, S. aureus, S. enteritidis and L. monocytogenes were cultured in Mueller-Hinton broth for 24 h at 37 °C. A microorganism suspension of 10^6 cfu mL^−1 (cfu, colony forming units) was prepared from each culture. IL solutions (31.3–1500 mM) were prepared with sterilized Mueller-Hinton broth, and then were sterilized by filtration (0.45 µm pore-diameter membrane). The various permutations of microorganism suspension (50 µL) and IL solution (50 µL) were mixed in 96-well microtiter plate. Growth of the microorganisms was determined visually after incubation for 24 h at 37 °C. Controls were conducted under the same conditions: negative controls without microorganisms and positive controls without ILs. The lowest concentration at which there was no visible growth (turbidity) was taken as the minimal inhibitory concentration (MIC). Samples of 20 µL from each well were spread onto Mueller-Hinton agar medium with inactivates (0.3% lecithin, 3% polysorbate 80 and 0.1% L-cysteine) and incubated for 48 h at 37 °C. The lowest concentration of the IL that killed 99.9% or more of the test bacterium was taken as the minimum biocidal concentration (MBC).

[1] = target: T1, AChE type VI-S (from the electric eel) (Electrophorus electricus, UniProt O42275); experiment: AChE inhibition assay (colorimetric, DTNB reduction); type: biochemical; settings: DTNB 0.5 mM, AChE 0.05 U mL^−1, acetylthiocholine iodide 0.5 mM, 37 °C, phosphate buffer pH 8.0; mean ± SD; read-out: EC50±SD (toxicity toward AChE)
T1 construct: purchased Sigma–Aldrich, USA type VI-S (catalogue number not given)
T1 sequence (O42275 24-633): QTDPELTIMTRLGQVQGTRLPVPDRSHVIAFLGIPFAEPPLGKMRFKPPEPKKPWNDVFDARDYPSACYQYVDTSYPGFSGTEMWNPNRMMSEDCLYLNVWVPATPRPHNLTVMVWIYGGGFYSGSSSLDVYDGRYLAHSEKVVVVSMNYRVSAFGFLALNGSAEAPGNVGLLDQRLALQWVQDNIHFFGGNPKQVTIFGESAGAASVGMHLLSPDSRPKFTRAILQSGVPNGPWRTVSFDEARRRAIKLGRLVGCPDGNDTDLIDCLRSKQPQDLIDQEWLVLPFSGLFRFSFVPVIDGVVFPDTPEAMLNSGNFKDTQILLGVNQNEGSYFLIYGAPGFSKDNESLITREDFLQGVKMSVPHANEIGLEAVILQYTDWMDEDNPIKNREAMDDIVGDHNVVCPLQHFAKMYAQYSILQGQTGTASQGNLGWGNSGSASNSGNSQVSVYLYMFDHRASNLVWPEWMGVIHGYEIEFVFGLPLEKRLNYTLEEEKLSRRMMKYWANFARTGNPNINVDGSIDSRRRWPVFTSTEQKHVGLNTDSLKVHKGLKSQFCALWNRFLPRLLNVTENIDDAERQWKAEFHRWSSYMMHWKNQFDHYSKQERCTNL
Method: A colorimetric assay based on reduction of DTNB was used to measure AChE inhibition as described previously, [24], in the presence of a phosphate buffer system in order to eliminate the effects of pH changes on enzyme activity. Briefly, IL solutions were prepared with 0.2 M phosphate buffer (pH 8.0) in 96-well microtiter plates. The enzyme (0.2 U mL^−1, plus 0.25 mg mL^−1 bovine serum albumin in the same phosphate buffer), and DTNB (2 mM, plus 0.185 mg mL^−1 NaHCO3 in the same phosphate buffer) were added to each well and kept at 37 °C for 5 min, and then the reaction was initiated by adding acetylthiocholine iodide (2 mM in the same phosphate buffer). In the experimental reactions, the final concentrations of DTNB, acetylthiocholine iodide and AChE were 0.5 mM, 0.5 mM and 0.05 U mL^−1, respectively. Except where stated otherwise, the concentration range used to calculate EC50 of the [Ch][AA] ILs was 0–50 mM. However, for strongly alkaline [Ch][AA] ILs such as [Ch][Lys], the maximum concentration used was 20 mM in order to avoid changes in enzyme activity due to pH changes that would be caused if the IL exceeded the buffering capacity of the phosphate buffer. Acidic amino acid-derived ILs ([Ch][Asp] and [Ch][Glu]) were used up to 80 mM. The control compounds cholinium chloride ([Ch][Cl]), [Bmim][BF4] and acetone were used at concentration ranges of 0–80 mM, 0–50 mM and 10 mM–2.5 M, respectively. Control experiments without enzyme were carried out under otherwise identical conditions. Reduction of DTNB was monitored at 405 nm and at 10 second intervals in a microplate reader (Wallac 1420 VICTOR3, PerkinElmer, Singapore) over a period of 5 min. Enzyme activity was expressed as ΔOD min^−1 obtained via linear regression analysis. All assays were performed at least in triplicate.
All data were analyzed by One-Way analysis of variance using SPSS 11.5 (SPSS Inc., USA). EC50 values are presented as mean ± standard deviation (SD) from at least three repeats, and confidence intervals (α = 0.05) of EC50 are also presented. The One-Way ANOVA was used to judge if the difference between the different ILs groups was significant. When the p value was<0.05, the difference was considered to be significant.

[2] = tested on: L. monocytogenes ATCC 19115; experiment: Antimicrobial activity, tube dilution method; type: cell-based, Listeria monocytogenes; settings: four repeated experiments; for MIC: 24 h at 37 °C; for MBC: kills 99.9% or more
Method: as §1

S. aureus ATCC 29213 = experiment: Antimicrobial activity, tube dilution method; type: cell-based, Staphylococcus aureus; settings: four repeated experiments; for MIC: 24 h at 37 °C; for MBC: kills 99.9% or more
Method: as §1

[3] = tested on: S. enteritidis ATCC 14128; experiment: Antimicrobial activity, tube dilution method; type: cell-based, Salmonella enteritidis; settings: four repeated experiments; for MIC: 24 h at 37 °C; for MBC: kills 99.9% or more
Method: as §1

SMILES	MIC (E. coli ATCC 8739) [mM]	MBC (E. coli ATCC 8739) [mM]	EC50 [1] [mM]	MIC [2] [mM]	MBC [2] [mM]	MIC (S. aureus ATCC 29213) [mM]	MBC (S. aureus ATCC 29213) [mM]	MIC [3] [mM]	MBC [3] [mM]
C[N+](C)(C)CCO.C[N+](C)(C)CCO.N[C@@H](CC(=O)[O-])C(=O)[O-] [[Ch][Asp]]	500	750	3.81 ± 0.09	500	750	750	750	125	188
C[N+](C)(C)CCO.N=C(N)NCCC[C@H](N)C(=O)[O-] [[Ch][Arg]]	46.9	93.8	3.67 ± 0.07	93.8	125	93.8	125	46.9	62.5
C[N+](C)(C)CCO.NCCCC[C@H](N)C(=O)[O-] [[Ch][Lys]]	31.3	46.9	3.48 ± 0.13	62.5	93.8	62.5	93.8	31.3	
